*1 amine or outer side, *2 acyl side, *3 side chain or, on linkers, in order; H or OH if unused. Where a SMILES comes first, the peptide text is derived from it. Side-chain parts run from the residue outwards. [ ]: non-standard residue; d: D form. The star is where a group is joined. X1 = O=C(O)CCCCCCCCCCCCCCCCCCC(=O)NCC1CCC(C(=O)*)CC1; γGlu = O=C(O)[C@H](CCC(=O)[*:2])N[*:1]; Nle = CCCC[C@H](N)C(=O)O; Aib = CC(C)(N)C(=O)O

This data set in a line: Pharmacokinetic study in minipigs, terminal half-life after i.v. administration. Particulars: female, Göttingen, minipig, plasma, iv, 5 nmol/kg.
Description: Pharmacokinetic Study in Minipigs
The purpose of this study is to determine the half-life in vivo of the derivatives of the present invention after i.v. administration to minipigs, i.e. the prolongation of their time in the body and thereby their time of action. This is done in a pharmacokinetic (PK) study, where the terminal half-life of the derivative in question is determined. By terminal half-life is generally meant the period of time it takes to halve a certain plasma concentration, measured after the initial distribution phase.
Female Göttingen minipigs were obtained from Ellegaard Göttingen Minipigs (Dalmose, Denmark) approximately 7-14 months of age and weighing from approximately 16-35 kg were used in the studies. The minipigs were housed individually and fed restrictedly once daily with SDS minipig diet (Special Diets Services, Essex, UK).
After at 3 weeks of acclimatisation two permanent central venous catheters were implanted in vena cava caudalis in each animal. The animals were allowed 1 week recovery after the surgery, and were then used for repeated pharmacokinetic studies with a suitable wash-out period between successive derivative dosing.
Blood samples (for example 0.8 ml) were collected in EDTA buffer (8 mM) and then centrifuged at 4° C. and 1942G for 10 minutes.
Individual plasma concentration-time profiles were analysed by a non-compartmental model in Phoenix WinNonLin ver. […] (Pharsight Inc., Mountain View, Calif., USA), and the resulting terminal half-lives (harmonic mean) determined.
Consider `CCCC[C@H](NC(=O)[C@H](C)NC(=O)[C@@H](NC(=O)[C@H](CO)NC(=O)[C@H](Cc1ccc(O)cc1)NC(=O)[C@H](CC(=O)O)NC(=O)[C@H](CO)NC(=O)[C@@H](NC(=O)[C@H](Cc1ccccc1)NC(=O)[C@@H](NC(=O)CNC(=O)[C@H](CCC(=O)O)NC(=O)[C@H](C)NC(=O)[C@@H](Cc1ccc(O)cc1)NC(C)=O)[C@@H](C)O)[C@@H](C)CC)[C@@H](C)CC)C(=O)N[C@@H](CC(=O)O)C(=O)N[C@@H](CCCCN)C(=O)N[C@H](C(=O)N[C@@H](CCCNC(=N)N)C(=O)N[C@@H](CCC(N)=O)C(=O)N[C@@H](CCC(N)=O)C(=O)N[C@@H](CC(=O)O)C(=O)N[C@@H](Cc1ccccc1)C(=O)N[C@H](C(=O)N[C@@H](CCCCNC(=O)CC[C@H](NC(=O)CC[C@H](NC(=O)CC[C@H](NC(=O)C1CCC(CNC(=O)CCCCCCCCCCCCCCCCCCC(=O)O)CC1)C(=O)O)C(=O)O)C(=O)O)C(=O)N[C@@H](Cc1c[nH]c2ccccc12)C(=O)N[C@@H](CC(C)C)C(=O)N[C@@H](CC(C)C)C(=O)N[C@@H](C)C(=O)N[C@@H](CCC(N)=O)C(=O)N[C@@H](CCCCN)C(=O)NCC(=O)O)C(C)C)[C@@H](C)CC` (stereo partly drawn) [Compound 8, N{1}-acetyl,N{Epsilon-24}-[(4S)-4-carboxy-4-[[(4S)-4-carboxy-4-[[(4S)-4-carboxy-4-[[4-[(19-carboxynonadecanoylamino)methyl]cyclohexanecarbonyl]amino]-butanoyl]amino]butanoyl]amino]butanoyl]-[D-Tyr1,Nle14,Arg18,Lys24]-hGIP(1-31)], for which the half-life – broadly, the time in which the quantity being followed falls by half – is 106 h.

`CCCC[C@H](NC(=O)[C@H](C)NC(=O)[C@@H](NC(=O)[C@H](CO)NC(=O)[C@H](Cc1ccc(O)cc1)NC(=O)[C@H](CC(=O)O)NC(=O)[C@H](CO)NC(=O)[C@@H](NC(=O)[C@H](Cc1ccccc1)NC(=O)[C@@H](NC(=O)CNC(=O)[C@H](CCC(=O)O)NC(=O)C(C)(C)NC(=O)[C@@H](N)Cc1ccc(O)cc1)[C@@H](C)O)[C@@H](C)CC)[C@@H](C)CC)C(=O)N[C@@H](CC(=O)O)C(=O)N[C@@H](CCCCN)C(=O)N[C@H](C(=O)N[C@@H](CCCNC(=N)N)C(=O)N[C@@H](CCC(N)=O)C(=O)N[C@@H](CCC(N)=O)C(=O)N[C@@H](CC(=O)O)C(=O)N[C@@H](Cc1ccccc1)C(=O)N[C@H](C(=O)N[C@@H](CCCCNC(=O)CC[C@H](NC(=O)CC[C@H](NC(=O)CC[C@H](NC(=O)C1CCC(CNC(=O)CCCCCCCCCCCCCCCCCCC(=O)O)CC1)C(=O)O)C(=O)O)C(=O)O)C(=O)N[C@@H](Cc1c[nH]c2ccccc12)C(=O)N[C@@H](CC(C)C)C(=O)N[C@@H](CC(C)C)C(=O)N[C@@H](C)C(=O)N[C@@H](CCC(N)=O)C(=O)N[C@@H](CCCCN)C(=O)N1CCC[C@H]1C(N)=O)C(C)C)[C@@H](C)CC` (stereo partly drawn) [Compound 26, N{Epsilon-24}-[(4S)-4-carboxy-4-[[(4S)-4-carboxy-4-[[(4S)-4-carboxy-4-[[4-[(19-carboxynonadecanoylamino)methyl]cyclohexanecarbonyl]amino]butanoyl]amino]-butanoyl]amino]butanoyl]-[Aib2,Nle14,Arg18,Lys24,Pro31]-hGIP(1-31) amide] had a half-life of 109 h.

Take `CCCC[C@H](NC(=O)[C@H](C)NC(=O)[C@@H](NC(=O)[C@H](CO)NC(=O)[C@H](Cc1ccc(O)cc1)NC(=O)[C@H](CC(=O)O)NC(=O)[C@H](CO)NC(=O)[C@@H](NC(=O)[C@H](Cc1ccccc1)NC(=O)[C@@H](NC(=O)CNC(=O)[C@H](CCC(=O)O)NC(=O)C(C)(C)NC(=O)[C@@H](N)Cc1ccc(O)cc1)[C@@H](C)O)[C@@H](C)CC)[C@@H](C)CC)C(=O)N[C@@H](CC(=O)O)C(=O)N[C@@H](CCCCN)C(=O)N[C@H](C(=O)N[C@@H](Cc1c[nH]cn1)C(=O)N[C@@H](CCC(N)=O)C(=O)N[C@@H](CCC(N)=O)C(=O)N[C@@H](CC(=O)O)C(=O)N[C@@H](Cc1ccccc1)C(=O)N[C@H](C(=O)N[C@@H](CCCCNC(=O)CC[C@H](NC(=O)CC[C@H](NC(=O)CC[C@H](NC(=O)C1CCC(CNC(=O)CCCCCCCCCCCCCCCCCCC(=O)O)CC1)C(=O)O)C(=O)O)C(=O)O)C(=O)N[C@@H](Cc1c[nH]c2ccccc12)C(=O)N[C@@H](CC(C)C)C(=O)N[C@@H](CC(C)C)C(=O)N[C@@H](C)C(=O)N[C@@H](CCC(N)=O)C(=O)N[C@@H](CCCCN)C(=O)N1CCC[C@H]1C(N)=O)C(C)C)[C@@H](C)CC` (stereo partly drawn) [Compound 27, N{Epsilon-24}-[(4S)-4-carboxy-4-[[(4S)-4-carboxy-4-[[(4S)-4-carboxy-4-[[4-[(19-carboxynonadecanoylamino)methyl]cyclohexanecarbonyl]amino]butanoyl]amino]-butanoyl]amino]butanoyl]-[Aib2,Nle14,Lys24,Pro31]-hGIP(1-31) amide] (H-Y[Aib]EGTFISDYSIA[Nle]DKIHQQDFVK([γGlu-γGlu-γGlu-X1])WLLAQKP-NH2): the half-life was 147 h.

Take `CCCC[C@H](NC(=O)[C@H](C)NC(=O)[C@@H](NC(=O)[C@H](CO)NC(=O)[C@H](Cc1ccc(O)cc1)NC(=O)[C@H](CC(=O)O)NC(=O)[C@H](CO)NC(=O)[C@@H](NC(=O)[C@H](Cc1ccccc1)NC(=O)[C@@H](NC(=O)CNC(=O)[C@H](CCC(=O)O)NC(=O)[C@H](C)NC(=O)[C@@H](Cc1ccc(O)cc1)NC(C)=O)[C@@H](C)O)[C@@H](C)CC)[C@@H](C)CC)C(=O)N[C@@H](CC(=O)O)C(=O)N[C@@H](CCCCN)C(=O)N[C@H](C(=O)N[C@@H](CCCNC(=N)N)C(=O)N[C@@H](CCC(N)=O)C(=O)N[C@@H](CCC(N)=O)C(=O)N[C@@H](CC(=O)O)C(=O)N[C@@H](Cc1ccccc1)C(=O)N[C@H](C(=O)N[C@@H](CCCCNC(=O)CC[C@H](NC(=O)CC[C@H](NC(=O)CC[C@H](NC(=O)C1CCC(CNC(=O)CCCCCCCCCCCCCCCCCCC(=O)O)CC1)C(=O)O)C(=O)O)C(=O)O)C(=O)N[C@@H](Cc1c[nH]c2ccccc12)C(=O)N[C@@H](CC(C)C)C(=O)N[C@@H](CC(C)C)C(=O)N[C@@H](C)C(=O)N[C@@H](CCC(N)=O)C(=O)N[C@@H](CCCCN)C(=O)N1CCC[C@H]1C(N)=O)C(C)C)[C@@H](C)CC` (stereo partly drawn) [Compound 28, N{1}-acetyl,N{Epsilon-24}-[(4S)-4-carboxy-4-[[(4S)-4-carboxy-4-[[(4S)-4-carboxy-4-[[4-[(19-carboxynonadecanoylamino)methyl]cyclohexanecarbonyl]amino]butanoyl]-amino]butanoyl]amino]butanoyl]-[D-Tyr1,Nle14,Arg18,Lys24,Pro31]-hGIP(1-31) amide] (Ac-[dY]AEGTFISDYSIA[Nle]DKIRQQDFVK([γGlu-γGlu-γGlu-X1])WLLAQKP-NH2): the half-life is 104 h.

Molecule `CCCC[C@H](NC(=O)[C@H](C)NC(=O)[C@@H](NC(=O)[C@H](CO)NC(=O)[C@H](Cc1ccc(O)cc1)NC(=O)[C@H](CC(=O)O)NC(=O)[C@H](CO)NC(=O)[C@@H](NC(=O)[C@H](Cc1ccccc1)NC(=O)[C@@H](NC(=O)CNC(=O)[C@H](CCC(=O)O)NC(=O)C(C)(C)NC(=O)[C@@H](Cc1ccc(O)cc1)NC(C)=O)[C@@H](C)O)[C@@H](C)CC)[C@@H](C)CC)C(=O)N[C@@H](CC(=O)O)C(=O)N[C@@H](CCCCN)C(=O)N[C@H](C(=O)N[C@@H](Cc1c[nH]cn1)C(=O)N[C@@H](CCC(N)=O)C(=O)N[C@@H](CCC(N)=O)C(=O)N[C@@H](CC(=O)O)C(=O)N[C@@H](Cc1ccccc1)C(=O)N[C@H](C(=O)N[C@@H](CCCCNC(=O)CC[C@H](NC(=O)CC[C@H](NC(=O)CC[C@H](NC(=O)C1CCC(CNC(=O)CCCCCCCCCCCCCCCCCCC(=O)O)CC1)C(=O)O)C(=O)O)C(=O)O)C(=O)N[C@@H](Cc1c[nH]c2ccccc12)C(=O)N[C@@H](CC(C)C)C(=O)N[C@@H](CC(C)C)C(=O)N[C@@H](C)C(=O)N[C@@H](CCC(N)=O)C(=O)N[C@@H](CCCCN)C(=O)N1CCC[C@H]1C(N)=O)C(C)C)[C@@H](C)CC` (stereo partly drawn) [Compound 32, N{1}-acetyl,N{Epsilon-24}-[(4S)-4-carboxy-4-[[(4S)-4-carboxy-4-[[(4S)-4-carboxy-4-[[4-[(19-carboxynonadecanoylamino)methyl]cyclohexanecarbonyl]amino]butanoyl]-amino]butanoyl]amino]butanoyl]-[D-Tyr1,Aib2, Nle14,Lys24,Pro31]-hGIP(1-31) amide] (Ac-[dY][Aib]EGTFISDYSIA[Nle]DKIHQQDFVK([γGlu-γGlu-γGlu-X1])WLLAQKP-NH2) gave a half-life of 121 h.

Values taken from patent US11633459B2, “GIP derivatives and uses thereof” (priority 2018, dated 2023).
